Experimental findings from patent publication US5260257A, “Thermal transfer sheet” (Dai Nippon Printing Co., Ltd., priority 1991, dated 1993) are described below.

Series [1] has as its system S. typhimurium TA100, TA98 and TA1538. Kind of series: Ames test (mutagenic test). Format: cell-based. The following applies: positive if reversion colonies twice or more vs control. Here is the method: Ames test was conducted as a mutagenic test.
Strains used were S. typhimurium TA100, TA98 and TA1538.
When the increase in the reversion colony was twice or more as compared with that in the case of the control, the mutagenicity was judged as positive, while when the increase in the reversion colony was less than twice as compared with that in the case of the control, the mutagenicity was judged as negative.
A general note: The Ames test uses bacterial strains that need an amino acid and regain growth without it when mutated back.

A short description of series [2]: light fastness test (Example D1 series). Format: physicochemical. Particulars: Table D1; xenon, 50° C., 70 kJ/m^2. Here is the method:
(§1) The light fastness test was conducted as follows.
(§2) Irradiation was conducted by means of a xenon fadeometer Ci35A (manufactured by Atlas) under conditions of a black panel temperature of 50° C. and an integrating irradiation energy of 70 kJ/m^2.
(§3) The percentage fading was determined from a density change around an initial density of 1.0 according to the following equation.
(§4) Percentage fading=(1-I/I0)×100 (%)
(§5) I=optical density after irradiation; and
(§6) I0 =optical density before irradiation.
(§7) .largecircle.: less than 20% in the percentage fading
Δ: 20% or more in the percentage fading

Series [3] is described as follows: ink stability test (precipitation of the dye in the ink observed with the naked eye). Format: physicochemical. The following applies: Table D1; room temperature (20°±3° C.), 48 hr. Here is the method:
The following ink composition for the formation of a dye supporting layer was prepared and heated to 70° C. to completely dissolve the ink.

A short description of series [4]: light fastness test (xenon fadeometer, percentage fading). Format: physicochemical. Particulars: 70 kJ/m^2. On the procedure: as §1, §2, §3, §4, §5, §6, §7
X : 20% or more in the percentage fading

The mark [5] stands for this setting: Table A2, dyes of Table A1, 50° C.
The mark [6] stands for this setting: Table B2, dyes of Table B1, 50° C.

Molecules are shown by their SMILES.

As for `CCN(CC)c1ccc(N=C2C=C(NC(C)=O)C(=O)C(Cl)=C2C)c(C)c1` [Comp. Ex. D1], in series [1], the mutagenicity result was “positive”. Also, the Light fastness result in series [2] is “.largecircle. (less than 20% in the percentage fading)”. Further, the stability of ink entry in series [3] is given as “large amount of crystal”.
Taken in the same sequence, the figures for `CCN(CC)c1ccc(N=C2C=C(NC(=O)C3CCCCC3)C(=O)C(Cl)=C2C)c(C)c1` [Comp. Ex. D2] were “negative”, “.largecircle. (less than 20% in the percentage fading)” and “small amount of crystal”.
In the case of `CCN(Cc1ccccc1)c1ccc(N=C2C=C(NC(=O)C3CCCC3)C(=O)C=C2NC(C)=O)c(C)c1` [compound 13], the Light fastness entry in series [4] (setting [5]) is listed as “.largecircle. (less than 20% in the percentage fading)”.
Turning to `CCN(CC)c1ccc(N=C2C=C(NC(=O)C3CCCC3)C(=O)C(Cl)=C2C)c(NC(C)=O)c1` [compound 14], the Light fastness entry in series [4] (setting [5]) is on record as “.largecircle. (less than 20% in the percentage fading)”.
Same read-out and setting: the result for `CCN(CC)c1ccc(N=C2C=C(NC(=O)C3CCCC3)C(=O)C(Cl)=C2C)c(C)c1` [compound 15] reads “.largecircle. (less than 20% in the percentage fading)”; that for `CCN(CC)c1ccc(N=C2C=C(NC(=O)C3CCCC3)C(=O)C(Cl)=C2C)cc1` [compound 17], “.largecircle. (less than 20% in the percentage fading)”.
Still for that read-out and setting: next, `CCN(CCCl)c1ccc(N=C2C=C(NC(=O)C3CCCC3)C(=O)C=C2NC(C)=O)c(NC(=O)NC)c1` [compound 18]: “.largecircle. (less than 20% in the percentage fading)”; `CCN(CC)c1ccc(N=C2C=C(NC(=O)c3ccsc3)C(=O)C(Cl)=C2C)c(C)c1` [compound 19]: “.largecircle. (less than 20% in the percentage fading)”; `CCN(CC)c1ccc(N=C2C=C(NC(=O)c3ccsc3)C(=O)C(Cl)=C2C)c(NC(C)=O)c1` [compound 20]: “.largecircle. (less than 20% in the percentage fading)”.
Still for that read-out and setting: the result for `CCN(CC)c1ccc(N=C2C=C(NC(=O)c3ccsc3)C(=O)C=C2NC(C)=O)c(C)c1` [compound 21] reads “.largecircle. (less than 20% in the percentage fading)”.
With `CCN(CCOC)c1ccc(N=C2C=C(NC(=O)c3ccsc3)C(=O)C(Cl)=C2C)c(NC(C)=O)c1` [compound 22], the Light fastness entry in series [4] (setting [5]) is reported as “.largecircle. (less than 20% in the percentage fading)”.
Turning to `CCN(CC)c1ccc(N=C2C=CC(=O)C(NC(=O)C3CC=CCC3)=C2)c(C)c1` (centres unmarked) [compound 23], the Light fastness entry in series [4] (setting [6]) is on record as “.largecircle. (less than 20% in the percentage fading)”.
Still for that read-out and setting: next, `CCN(CCNS(C)(=O)=O)c1ccc(N=C2C=C(NC(=O)C3CC=CCC3)C(=O)C(Cl)=C2C)c(C)c1` (centres unmarked) [compound 24]: “.largecircle. (less than 20% in the percentage fading)”.
